# Literature values, collected in US20070218480A1, “DETECTION AND DIAGNOSIS OF SMOKING RELATED CANCERS” (THE BOARD OF REGENTS OF THE UNIVERSITY OF TEXAS SYSTEM, priority 2006, published 2007).
# Read-outs that look alike come from different tables or passages of the source.
# How the values were obtained:
# [1] = stored at in a dry, airtight, light-resistant environment
# [2] = mice
compound,measurement,setting,value
CC[C@@]1(O)C(=O)OCc2c1cc1n(c2=O)Cc2cc3ccccc3nc2-1 [Camptothecin],storage stability,[1],at least two
COc1cc2ncnc(Nc3ccc(F)c(Cl)c3)c2cc1OCCCN1CCOCC1 [gefitinib],objective response (OR),NSCLC patients; HER2 FISH-negative (no or low gain) NSCLC patients treated with gefitinib,6.4%
same,disease control rate (DCR),NSCLC patients; HER2 FISH-negative patients,33.3%
same,overall survival (OS),NSCLC patients; HER2 FISH-negative patients,8.4 months
same,time to progression (TTP),NSCLC patients; HER2 FISH-negative patients,2.7 months
same,objective response (OR),NSCLC patients; HER2 FISH-positive (high copy number) NSCLC patients treated with gefitinib,34.8%
same,disease control rate (DCR),NSCLC patients; HER2 FISH-positive patients,56.5%
same,overall survival (OS),NSCLC patients; HER2 FISH-positive patients,20.8 months
same,time to progression (TTP),NSCLC patients; HER2 FISH-positive patients,9.05 months
Bleomycin,tissue distribution,[2],"high concentrations of bleomycin are found in the skin, lungs, kidneys, peritoneum, and lymphatics"
